Results reported in ChEMBL document CHEMBL1157405, “ent-Kaurane diterpenoids from Isodon japonicus” (J Nat Prod, 2008).

System: RAW264.7
Assay: Inhibition of LPS-induced nitric oxide production in mouse RAW264.7 cells assessed as nitrite formation
Format: functional, cell-based

Compound | IC50
C=C1C(=O)[C@]23[C@@H](O)[C@H]1CC[C@H]2[C@@]12COC3(O)C[C@@H]1C(C)(C)CC[C@@H]2O | 8.5 µM
C=C1C(=O)[C@@]23[C@H](O)C[C@@H]4C(C)(C)[C@@H](OC(C)=O)CC[C@@]4(C)[C@@H]2CC(=O)[C@@H]1[C@H]3O [PSEURATA C] | 5.4 µM
C=C1C(=O)[C@]23[C@H](O)[C@H]1CC[C@H]2[C@@]12CO[C@@]3(O)[C@@H](O)[C@@H]1C(C)(C)CC[C@@H]2OC(C)=O [LASIOKAURIN] | 1.6 µM
C=C1C(=O)[C@]23C[C@H]1CC[C@H]2[C@@]12CO[C@]3(O)[C@@H](O)[C@@H]1[C@](C)(COC(C)=O)CC[C@@H]2OC(C)=O [EFFUSANIN D] | 3.3 µM
C=C1C(=O)[C@]23C[C@H]1CC[C@H]2[C@]1(COC3=O)[C@@H](OC(C)=O)CC[C@@](C)(COC(C)=O)[C@H]1C=O | 20.3 µM
C=C1C(=O)[C@]23[C@H](O)[C@H]1CC[C@H]2[C@]12CCC[C@@](C)(COC(C)=O)[C@H]1[C@H](O)[C@]3(O)OC2 [LONGIKAURIN B] | 0.9 µM
C=C1C(=O)[C@]23C[C@H]1C[C@@H](OC(C)=O)[C@H]2[C@@]12CO[C@@]3(O)[C@@H](O)[C@@H]1[C@](C)(COC(C)=O)CC[C@@H]2O | 10.2 µM
C=C1C(=O)[C@]23C[C@H]1CC[C@H]2[C@]1(COC3=O)[C@@H](OC(C)=O)CC[C@@](C)(COC(C)=O)[C@H]1CO | 8.2 µM
C=C1C(=O)[C@]23C[C@H]1C[C@@H](O)[C@H]2[C@]1(COC3=O)[C@@H](OC(C)=O)CC[C@@](C)(COC(C)=O)[C@H]1C=O [LOXOTHYRIN A] | 24.2 µM
C=C1C(=O)[C@]23C[C@H]1CC[C@H]2[C@]12CCC[C@@](C)(COC(C)=O)[C@H]1[C@H](O)[C@]3(O)OC2 [LONGIKAURIN C] | 1 µM
C=C1C(=O)[C@]23C[C@H]1CC[C@H]2[C@@]12CO[C@@]3(O)[C@@H](O)[C@@H]1[C@](C)(COC(C)=O)CC[C@@H]2O | 5.9 µM
C=C1C(=O)[C@]23[C@H](O)[C@H]1CC[C@H]2[C@@]12CO[C@@]3(O)[C@@H](O)[C@@H]1[C@](C)(COC(C)=O)CC[C@@H]2OC(C)=O [ISODOJAPONIN A] | 6.3 µM
C=C1C(=O)[C@]23C[C@H]1CC[C@H]2[C@]1(COC3=O)[C@@H](OC(C)=O)CC[C@@](C)(CO)[C@H]1COC(C)=O | 8.7 µM
C=C1C(=O)[C@@]23[C@H](O)C[C@@H]4C(C)(C)CC[C@H](O)[C@@]4(C)[C@@H]2C[C@H](OC(C)=O)[C@@H]1[C@H]3O [EXCISANIN B] | 3.3 µM
C=C1C(=O)[C@]23C[C@H]1C[C@@H](O)[C@H]2[C@]12CCC[C@@](C)(COC(C)=O)[C@H]1[C@H](O)[C@]3(O)OC2 [LONGIKAURIN D] | 2 µM
